The values below come from ChEMBL document CHEMBL1795312, “Insights into the structural requirements of farnesyltransferase inhibitors as potential anti-tumor agents based on 3D-QSAR CoMFA and CoMSIA models” (Eur J Med Chem, 2008).

The nature of this assay: Inhibition of farnesyltransferase.

With `N#Cc1ccc(Cn2cncc2CN(CCCN)C2CCN(Cc3cccc(Cl)c3)C2=O)cc1` (stereo not drawn), the pIC50 (usually the IC50 on a negative log10 scale, so that one unit is a factor of ten) is 8.12.

As to `Cc1ccccc1-c1cc(C(OCc2nc(-c3ccc(Cl)cc3)cs2)c2cncn2C)ccc1C#N` (stereo not drawn), the pIC50 was 7.53.

Compound `COC(=O)c1ccc(COC(c2ccc(C#N)c(-c3ccccc3C(F)(F)F)c2)c2cncn2C)nc1` (stereo not drawn) gave a negative-log IC50 (pIC50) of 8.04.

In the case of `Cn1cncc1C(OCc1ccc(C#N)c(N2CCOCC2)n1)c1ccc(C#N)c(-c2ccccc2C(F)(F)F)c1` (stereo not drawn), the pIC50 was 8.88.

Take `Cc1ccccc1-c1cc(C(OCc2ccc(OC(F)(F)F)cc2)c2cncn2C)ccc1C#N` (stereo not drawn): the pIC50 amounted to 7.79.

As to `Cc1ccccc1-c1cc(C(OCc2ccc(C(C)C)cc2)c2cncn2C)ccc1C#N` (stereo not drawn), the pIC50 is listed as 7.29.

Compound `Cc1ccccc1-c1cc(C(OCc2cccc(I)c2)c2cncn2C)ccc1C#N` (stereo not drawn) yielded a pIC50 of 7.69.

In the case of `Cc1ccc(COC(c2ccc(C#N)c(-c3ccccc3C)c2)c2cncn2C)cc1` (stereo not drawn), the pIC50 stood at 7.26.

`Cc1ccccc1-c1cc(C(OCc2cccc(OC(F)(F)F)c2)c2cncn2C)ccc1C#N` (stereo not drawn): the pIC50 is given as 8.08.

Take `Cc1ccccc1-c1cc(C(OCc2ccc(C(F)(F)F)cc2)c2cncn2C)ccc1C#N` (stereo not drawn): the pIC50 is 7.92.

With `Cc1ccccc1-c1cc(C(OCc2ccc(C(C)(C)C)cc2)c2cncn2C)ccc1C#N` (stereo not drawn), the pIC50 turned out to be 7.06.

Turning to `COC(=O)c1cccc(COC(c2ccc(C#N)c(-c3ccccc3C)c2)c2cncn2C)c1` (stereo not drawn), the pIC50 is given as 7.21.

In the case of `N#Cc1ccc(Cn2cncc2COCc2ccc(C#N)cc2-c2cccc(OC(F)(F)F)c2)cc1`, the pIC50 came to 9.3.

`Cc1ccc(-c2cc(C#N)ccc2COCc2cncn2Cc2ccc(C#N)cc2)cc1C` registered a pIC50 of 9.22.

`Cn1cncc1C(OCc1ccc(C#N)c(NCc2cccc(F)c2)n1)c1ccc(C#N)c(-c2ccccc2C(F)(F)F)c1` (stereo not drawn) displayed a pIC50 of 8.

Compound `Cn1cncc1C(OCc1ccc(C#N)cc1)c1ccc(C#N)c(-c2ccccc2C=O)c1` (stereo not drawn) had a pIC50 of 8.72.

For `Cc1cccc(COC(c2ccc(C#N)c(-c3ccccc3C)c2)c2cncn2C)c1` (stereo not drawn), the pIC50 is reported as 7.21.

On to `Cc1ccccc1-c1cc(C(OCc2cccc3ccccc23)c2cncn2C)ccc1C#N` (stereo not drawn), for which the pIC50 was 7.76.

In turn, `Cc1ccccc1-c1cc(C(OCc2cccc(Cl)c2)c2cncn2C)ccc1C#N` (stereo not drawn) had a pIC50 of 7.72.

In the case of `Cc1cccc(-c2cc(C(OCc3ccc(C#N)cc3)c3cncn3C)ccc2C#N)c1C` (stereo not drawn), the pIC50 is 8.67.

Turning to `N#Cc1ccc(Cn2cncc2COCc2ccc(C#N)cc2-c2ccc(C(F)(F)F)cc2)cc1`, the pIC50 is recorded as 8.36.

In the case of `Cn1cncc1C(OCc1ccc(C(F)(F)F)c(F)c1)c1ccc(C#N)c(-c2ccccc2C(F)(F)F)c1` (stereo not drawn), the pIC50 amounted to 8.21.

As to `Cc1ccccc1-c1cc(C(OCc2c(Cl)cccc2Cl)c2cncn2C)ccc1C#N` (stereo not drawn), the pIC50 is 7.09.

The compound `Cc1ccccc1-c1cc(C(OCc2ccc(C#N)cc2)c2cncn2C)ccc1C#N` (stereo not drawn) came in with a negative logarithm of the IC50 (pIC50) of 8.39.

`Cn1cncc1C(OCc1ccc(Cl)c(Cl)c1)c1ccc(C#N)c(-c2ccccc2C(F)(F)F)c1` (stereo not drawn) came in with a pIC50 of 8.76.

As to `Cc1ccccc1-c1cc(C(OCc2ccc(Br)cc2)c2cncn2C)ccc1C#N` (stereo not drawn), the pIC50 is 7.92.

For `CC(=O)N1CCN(c2nc(COC(c3ccc(C#N)c(-c4ccccc4C(F)(F)F)c3)c3cncn3C)ccc2C#N)CC1` (stereo not drawn), the negative-log IC50 (pIC50) came to 8.58.

Take `Cn1cncc1C(OCc1ccc(C#N)cc1)c1ccc(C#N)c(-c2cccc(Cl)c2Cl)c1` (stereo not drawn): the pIC50 came out at 8.82.

With `Cc1ccccc1-c1cc(C(OCc2ccc(I)cc2)c2cncn2C)ccc1C#N` (stereo not drawn), the pIC50 is on record as 7.88.

`N#Cc1ccc(COCc2cncn2Cc2ccc(Cl)cc2)c(-c2ccc3c(c2)OCO3)c1` had a pIC50 of 8.08.

The compound `Cn1cncc1C(OCc1ccc(C#N)c(N2CCC(CO)CC2)n1)c1ccc(C#N)c(-c2ccccc2C(F)(F)F)c1` (stereo not drawn) had a pIC50 of 8.74.

Take `Cn1cncc1C(OCc1ccc(C#N)c(NCC2CCCO2)n1)c1ccc(C#N)c(-c2ccccc2C(F)(F)F)c1` (stereo not drawn): the pIC50 was determined as 8.17.

Turning to `Cc1ccccc1-c1cc(C(OCc2ccc(-c3ccccc3)cc2)c2cncn2C)ccc1C#N` (stereo not drawn), the pIC50 was 7.88.

`Cn1cncc1C(OCc1ccc(C#N)c(N2CCC[C@@H]2C(=O)O)n1)c1ccc(C#N)c(-c2ccccc2C(F)(F)F)c1` (stereo partly drawn): the pIC50 is 8.44.

Consider `Cc1ccccc1-c1cc(C(OCc2ccc([N+](=O)[O-])cc2)c2cncn2C)ccc1C#N` (stereo not drawn), for which the pIC50 is on record as 8.12.

`Cn1cncc1C(OCc1ccc(C#N)c(N2CCN(CCO)CC2)n1)c1ccc(C#N)c(-c2ccccc2C(F)(F)F)c1` (stereo not drawn) returned a negative-log IC50 (pIC50) of 8.88.

`Cn1cncc1C(OCc1ccc(C#N)cc1)c1ccc(C#N)c(-c2ccccc2CO)c1` (stereo not drawn) came in with a pIC50 of 8.25.

With `Cc1ccccc1-c1cc(C(OCc2cccc3cccnc23)c2cncn2C)ccc1C#N` (stereo not drawn), the negative logarithm of the IC50 (pIC50) is 7.22.

In the case of `Cn1cncc1C(OCc1ccc(C#N)c(N2CCCC(O)C2)n1)c1ccc(C#N)c(-c2ccccc2C(F)(F)F)c1` (stereo not drawn), the pIC50 amounted to 8.88.

In the case of `Cn1cncc1C(OCc1ccc(C#N)c(N2CCC(O)C2)n1)c1ccc(C#N)c(-c2ccccc2C(F)(F)F)c1` (stereo not drawn), the pIC50 is reported as 8.45.

`CCOc1cccc(-c2cc(C#N)ccc2COCc2cncn2Cc2ccc(C#N)nc2)c1` yielded a pIC50 of 9.23.

As to `CC(C)(C)c1ccc(-c2cc(C#N)ccc2COCc2cncn2Cc2ccc(C#N)cc2)cc1`, the pIC50 was determined as 9.35.

Take `N#Cc1ccc(Cn2cncc2COCc2ccc(C#N)cc2-c2ccc3ccccc3c2)cc1`: the pIC50 worked out at 9.03.

As for `CCOc1ccc(-c2cc(C#N)ccc2COCc2cncn2Cc2ccc(C#N)cc2)cc1`, the pIC50 was determined as 8.92.

In turn, `COc1ccc(-c2cc(C#N)ccc2COCc2cncn2Cc2ccc(C#N)cc2)cn1` yielded a pIC50 of 8.11.

Take `N#Cc1ccc(COCc2cncn2Cc2ccc(C#N)nc2)c(-c2cccc(Cl)c2)c1`: the pIC50 is given as 8.52.

`COc1cccc(-c2cc(C#N)ccc2COCc2cncn2Cc2ccc(C#N)cn2)c1` had a pIC50 of 8.35. The pIC50 values of the last two compounds are within 0.2 log units of each other.

As to `COc1cccc(-c2cc(C#N)ccc2COCc2cncn2Cc2ccc(C#N)nc2)c1`, the pIC50 was found to be 8.82.

In the case of `N#Cc1ccc(Cn2cncc2COCc2ccc(C#N)cc2-c2cccc(Cl)c2)cc1`, the pIC50 was 9.43.

Turning to `N#Cc1ccc(Cn2cncc2COCc2ccc(Cl)cc2-c2cccc(Cl)c2)cc1`, the pIC50 was 9.2.

As for `N#Cc1ccc(Cn2cncc2COCc2ccc(C#N)cc2-c2ccc(Cl)c(Cl)c2)cc1`, the negative logarithm of the IC50 (pIC50) came out at 9.43.

With `N#Cc1ccc(Cn2cncc2COCc2cnc(C#N)cc2-c2cccc(Cl)c2)cc1`, the pIC50 was 8.36.

Regarding `Cc1ccccc1-c1cc(C(OCc2ccc(Cl)cc2)c2cncn2C)ccc1C#N` (stereo not drawn), the pIC50 is listed as 7.95.

For `Cc1ccccc1-c1cc(C(OCc2ccccc2)c2cncn2C)ccc1C#N` (stereo not drawn), the pIC50 is reported as 7.07.

Turning to `COc1ccc(COC(c2ccc(C#N)c(-c3ccccc3C)c2)c2cncn2C)cc1` (stereo not drawn), the pIC50 is given as 7.22.

The compound `Cc1ccccc1-c1cc(C(OCc2ccccc2C#N)c2cncn2C)ccc1C#N` (stereo not drawn) returned a pIC50 of 7.2.

`Cn1cncc1C(OCc1ccc(C#N)c(NCCc2ccccc2)n1)c1ccc(C#N)c(-c2ccccc2C(F)(F)F)c1` (stereo not drawn): the pIC50 stood at 8.04.

In the case of `CN1CCN(c2nc(COC(c3ccc(C#N)c(-c4ccccc4C(F)(F)F)c3)c3cncn3C)ccc2C#N)CC1` (stereo not drawn), the pIC50 is recorded as 8.92.

With `Cc1ccccc1-c1cc(C(OCc2ccccc2Cl)c2cncn2C)ccc1C#N` (stereo not drawn), the pIC50 was found to be 7.31.

`Cc1ccccc1COC(c1ccc(C#N)c(-c2ccccc2C)c1)c1cncn1C` (stereo not drawn) showed a pIC50 of 7.26.

The compound `Cn1cncc1C(OCc1ccc(C#N)cc1)c1ccc(C#N)c(-c2ccccc2C(F)(F)F)c1` (stereo not drawn) showed a pIC50 of 9.09.

In turn, `Cc1ccccc1-c1cc(C(OCc2cnc(Cl)c(Cl)c2)c2cncn2C)ccc1C#N` (stereo not drawn) returned a pIC50 of 7.82.

Consider `Cn1cncc1C(OCc1ccc(C#N)c(NCC2CCOC2)n1)c1ccc(C#N)c(-c2ccccc2C(F)(F)F)c1` (stereo not drawn), for which the pIC50 came to 8.11.

`CC(=O)NC1CCN(c2nc(COC(c3ccc(C#N)c(-c4ccccc4C(F)(F)F)c3)c3cncn3C)ccc2C#N)C1` (stereo not drawn) had a pIC50 of 8.76.

Consider `Cn1cncc1C(OCc1ccc(F)c(C(F)(F)F)c1)c1ccc(C#N)c(-c2ccccc2C(F)(F)F)c1` (stereo not drawn), for which the pIC50 was 8.38.

For `Cc1ccccc1-c1cc(C(OCc2cccc(Br)c2)c2cncn2C)ccc1C#N` (stereo not drawn), the negative-log IC50 (pIC50) is 7.88.

`Cc1ccccc1-c1cc(C(OCc2cccc(F)c2)c2cncn2C)ccc1C#N` (stereo not drawn): the pIC50 amounted to 7.42.

The compound `Cc1ccccc1-c1cc(C(OCc2ccc(F)cc2)c2cncn2C)ccc1C#N` (stereo not drawn) registered a pIC50 of 7.49.

`Cc1ccccc1-c1cc(C(OCc2cc(Cl)cc(Cl)c2)c2cncn2C)ccc1C#N` (stereo not drawn) gave a pIC50 of 7.72.

Turning to `N#Cc1ccc(Cn2cncc2COCc2ccc(C#N)cc2-c2cccc(Cl)c2)nc1`, the pIC50 was found to be 8.76.

`Cc1ccccc1-c1cc(C(OCc2cc(Cl)nc(Cl)c2)c2cncn2C)ccc1C#N` (stereo not drawn) gave a pIC50 of 7.88.

As to `N#Cc1ccc(Cn2cncc2COCc2ccc(C#N)cc2-c2cccc3ccccc23)cc1`, the pIC50 is listed as 8.88.

For the compound `CCOc1cccc(-c2cc(C#N)ccc2COCc2cncn2Cc2ccc(Cl)cc2)c1`, the pIC50 is 8.85.

Take `N#Cc1ccc(Cn2cncc2COCc2ccc(C#N)cc2-c2ccc(OC(F)(F)F)cc2)cc1`: the pIC50 is 9.18.

With `N#Cc1ccc(Cn2cncc2COCc2ccc(C#N)cc2-c2cccc3c2OCO3)cc1`, the pIC50 was 9.09.

The compound `CC(=O)c1ccc(-c2cc(C#N)ccc2COCc2cncn2Cc2ccc(C#N)cc2)cc1` registered a pIC50 of 8.88.

For the compound `COc1cccc(-c2cc(C#N)ccc2COCc2cncn2Cc2ccc(Cl)cc2)c1`, the pIC50 was determined as 8.65.

On to `Cc1ccccc1-c1cc(C(OCc2ccccc2[N+](=O)[O-])c2cncn2C)ccc1C#N` (stereo not drawn), for which the pIC50 turned out to be 7.48.

Compound `Cn1cncc1C(OCc1ccc(C#N)c(N2CCC[C@@H]2CO)n1)c1ccc(C#N)c(-c2ccccc2C(F)(F)F)c1` (stereo partly drawn) had a pIC50 of 8.69.

In the case of `Cc1ccccc1-c1cc(C(OCc2ccc(Cl)c(Cl)c2)c2cncn2C)ccc1C#N` (stereo not drawn), the pIC50 is given as 7.56.

`Cn1cncc1C(OCc1ccc(C#N)cc1)c1ccc(C#N)c(-c2cccc3ccccc23)c1` (stereo not drawn) displayed a pIC50 of 9.69.

As to `Cc1ccccc1-c1cc(C(OCc2ccccc2F)c2cncn2C)ccc1C#N` (stereo not drawn), the pIC50 is on record as 7.15.

The compound `CC(=O)Nc1cccc(-c2cc(C#N)ccc2COCc2cncn2Cc2ccc(C#N)cc2)c1` yielded a pIC50 of 7.88.
